Common to all, as to assay: growth of human tumour cells (NCI), 48 h
Experiment [1] relates to BT-549 breast.
Experiment [2] relates to HS 578T breast.
Experiment [3] concerns T-47D breast.
Experiment [4] has as its system MCF7 breast.
Experiment [5] concerns XF 498 CNS.
The test system of experiment [6] is HOP-18 NSCLC.
The subject of experiment [7] is M19-MEL melanoma.
Experiment [8] relates to MDA-N.

From PubChem BioAssay (NCI) come the findings set out here.

Structures are written as SMILES.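 Method: 48-hour compound exposure of cells in 96-well plates, five concentrations, linear interpolation of endpoints. TGI: total growth inhibition.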 Bounds are passed on as bounds.

On to `COc1cc2c3c(c4cc(OC)c(OC)cc4c2cc1OC)C(=O)C1CCC(=O)N1C3` (configuration not stated), for which the TGI in experiment [1], in experiment [2], in experiment [3] and in experiment [4] was above 100 µM in each case.
With `Cc1cccc(C(C)C)c1NC(=O)CC1Sc2ccccc2NC1=O` (configuration not stated), the TGI in experiment [5] and in experiment [6] was above 100 µM each time.
`CC(=O)OC1(C#N)CC2OC1C1C2N=NN1C(=O)OC(C)(C)C` (configuration not stated): the TGI in experiment [7] and in experiment [6] was above 100 µM each time.
With `CCOC(=O)c1csc(NC(=O)CN2CCN(C)CC2)n1`, the TGI in experiment [8], in experiment [3] and in experiment [4] was above 100 µM in each case.
On to `O=C(CC(=O)c1ccccc1)CC(O)(c1ccccc1)c1ccccc1`, for which, in experiment [7], the TGI is 13.9 µM.
